Reference: publication PMC5218480 (PLoS ONE, 2017)

Test system: MV-4-11 cells
Assay: Gene expression microarray analysis (Affymetrix PrimeView) and GSEA
Assay type: cell-based, human
Parameters: RFU PODN (11730768_x_at) / Fold change /veh PODN (11730768_x_at) / RFU LINC00158 (11744669_a_at) / Fold change /veh LINC00158 (11744669_a_at) / RFU DUSP10 (11751237_a_at) / Fold change /veh DUSP10 (11751237_a_at) / RFU ID3 (11757404_x_at) / Fold change /veh ID3 (11757404_x_at) / RFU PLEKHG5 (11737974_s_at) / Fold change /veh PLEKHG5 (11737974_s_at) / RFU LRRC4B (11730491_at) / Fold change /veh LRRC4B (11730491_at) / RFU GIMAP4 (11747438_a_at) / Fold change /veh GIMAP4 (11747438_a_at) / RFU KRT8 (11758183_x_at) / Fold change /veh KRT8 (11758183_x_at) / RFU CNN1 (11734310_a_at) / Fold change /veh CNN1 (11734310_a_at) / RFU VPS37D (11726825_at) / Fold change /veh VPS37D (11726825_at) / RFU C10orf10 (11716522_x_at) / Fold change /veh C10orf10 (11716522_x_at) / RFU KIR2DL2 /// KIR2DL4 /// KIR2DL5A /// KIR2DL5B /// KIR2DS1 /// KIR2DS2 /// KIR2DS3 /// KIR2DS4 /// KIR3DL3 /// KIR3DL3 /// KIR3DS1 (11738374_at) / Fold change /veh KIR2DL2 /// KIR2DL4 /// KIR2DL5A /// KIR2DL5B /// KIR2DS1 /// KIR2DS2 /// KIR2DS3 /// KIR2DS4 /// KIR3DL3 /// KIR3DL3 /// KIR3DS1 (11738374_at) / RFU C1QL1 (11718748_at) / Fold change /veh C1QL1 (11718748_at) / RFU TMPRSS4 (11747572_a_at) / Fold change /veh TMPRSS4 (11747572_a_at) / RFU HAMP (11756126_x_at) / Fold change /veh HAMP (11756126_x_at) / RFU RNFT2 (11725882_a_at) / Fold change /veh RNFT2 (11725882_a_at) / RFU NR4A2 (11747474_a_at) / Fold change /veh NR4A2 (11747474_a_at) / RFU ABCC12 (11746883_a_at) / Fold change /veh ABCC12 (11746883_a_at) / RFU TMEM136 (11760407_x_at) / Fold change /veh TMEM136 (11760407_x_at) / RFU CLDN22 /// WWC2 (11732394_at) / Fold change /veh CLDN22 /// WWC2 (11732394_at) / RFU HLA-DPB1 (11760878_x_at) / Fold change /veh HLA-DPB1 (11760878_x_at) / RFU SPINT1 (11716480_a_at) / Fold change /veh SPINT1 (11716480_a_at) / RFU GAP43 (11754022_s_at) / Fold change /veh GAP43 (11754022_s_at) / RFU A4GNT (11735810_at) / Fold change /veh A4GNT (11735810_at) / RFU PRB3 (11715151_x_at) / Fold change /veh PRB3 (11715151_x_at) / RFU TUBB4B (11761932_at) / Fold change /veh TUBB4B (11761932_at) / RFU CAPN14 (11732068_a_at) / Fold change /veh CAPN14 (11732068_a_at) / RFU TMCC2 (11721928_a_at) / Fold change /veh TMCC2 (11721928_a_at) / RFU IRGQ (11745062_a_at) / Fold change /veh IRGQ (11745062_a_at) / RFU FAM174B (11720279_a_at) / Fold change /veh FAM174B (11720279_a_at) / RFU TMPRSS4 (11748680_a_at) / Fold change /veh TMPRSS4 (11748680_a_at) / RFU FAM212B (11763350_a_at) / Fold change /veh FAM212B (11763350_a_at) / RFU PLEKHG5 (11743358_a_at) / Fold change /veh PLEKHG5 (11743358_a_at) / RFU ZSCAN30 (11745921_a_at) / Fold change /veh ZSCAN30 (11745921_a_at) / RFU CMKLR1 (11741424_a_at) / Fold change /veh CMKLR1 (11741424_a_at) / RFU LOC101060620 /// MAPK8IP1 (11723275_at) / Fold change /veh LOC101060620 /// MAPK8IP1 (11723275_at) / RFU SPTSSB (11747773_x_at) / Fold change /veh SPTSSB (11747773_x_at) / RFU PRSS12 (11739890_at) / Fold change /veh PRSS12 (11739890_at) / RFU BIN1 (11741810_x_at) / Fold change /veh BIN1 (11741810_x_at) / RFU WNT11 (11732464_a_at) / Fold change /veh WNT11 (11732464_a_at) / RFU C10orf10 (11716521_a_at) / Fold change /veh C10orf10 (11716521_a_at) / RFU C5orf56 (11738089_at) / Fold change /veh C5orf56 (11738089_at) / RFU CYB561 (11721691_x_at) / Fold change /veh CYB561 (11721691_x_at) / RFU ANKRD19P (11752326_a_at) / Fold change /veh ANKRD19P (11752326_a_at) / RFU OR2T12 /// OR2T33 /// OR2T8 (11738714_s_at) / Fold change /veh OR2T12 /// OR2T33 /// OR2T8 (11738714_s_at) / RFU VCAN (11748164_a_at) / Fold change /veh VCAN (11748164_a_at) / RFU JSRP1 (11732532_at) / Fold change /veh JSRP1 (11732532_at) / RFU KRTAP10-11 (11738290_x_at) / Fold change /veh KRTAP10-11 (11738290_x_at) / RFU MYO3A (11730013_a_at) / Fold change /veh MYO3A (11730013_a_at) / RFU EBF3 (11725865_a_at) / Fold change /veh EBF3 (11725865_a_at) / RFU CAMK2N1 (11719241_x_at) / Fold change /veh CAMK2N1 (11719241_x_at) / RFU C5orf56 (11738088_a_at) / Fold change /veh C5orf56 (11738088_a_at) / RFU OLFML3 (11715873_a_at) / Fold change /veh OLFML3 (11715873_a_at) / RFU LOC100653217 /// NTM (11731650_a_at) / Fold change /veh LOC100653217 /// NTM (11731650_a_at) / RFU MAPK11 (11762145_a_at) / Fold change /veh MAPK11 (11762145_a_at) / RFU FIZ1 (11724087_x_at) / Fold change /veh FIZ1 (11724087_x_at) / RFU OASL (11726364_x_at) / Fold change /veh OASL (11726364_x_at) / RFU SOX15 (11748057_x_at) / Fold change /veh SOX15 (11748057_x_at) / RFU CD79A (11719716_a_at) / Fold change /veh CD79A (11719716_a_at) / RFU HIST1H1D (11736915_at) / Fold change /veh HIST1H1D (11736915_at) / RFU CASKIN2 (11723855_a_at) / Fold change /veh CASKIN2 (11723855_a_at) / RFU LOC730098 (11760151_x_at) / Fold change /veh LOC730098 (11760151_x_at) / RFU OR4N2 (11742367_at) / Fold change /veh OR4N2 (11742367_at) / RFU PRRT2 (11749266_a_at) / Fold change /veh PRRT2 (11749266_a_at) / RFU SNX32 (11753110_a_at) / Fold change /veh SNX32 (11753110_a_at) / RFU CDHR5 (11726645_a_at) / Fold change /veh CDHR5 (11726645_a_at) / RFU RCAN1 (11760418_a_at) / Fold change /veh RCAN1 (11760418_a_at) / RFU FAM167A (11723789_a_at) / Fold change /veh FAM167A (11723789_a_at) / RFU FAM26E (11764081_at) / Fold change /veh FAM26E (11764081_at) / RFU ISYNA1 (11749810_s_at) / Fold change /veh ISYNA1 (11749810_s_at) / RFU ACY1 (11761880_at) / Fold change /veh ACY1 (11761880_at) / RFU 11764098_at / Fold change /veh 11764098_at / RFU SAMD14 (11745864_x_at) / Fold change /veh SAMD14 (11745864_x_at) / RFU NPB (11741838_a_at) / Fold change /veh NPB (11741838_a_at) / RFU TMPRSS6 (11731388_a_at) / Fold change /veh TMPRSS6 (11731388_a_at) / RFU KRTAP10-2 (11738614_at) / Fold change /veh KRTAP10-2 (11738614_at) / RFU ARHGAP8 /// PRR5-ARHGAP8 (11727945_x_at) / Fold change /veh ARHGAP8 /// PRR5-ARHGAP8 (11727945_x_at) / RFU KRTAP5-7 /// NADSYN1 (11734609_at) / Fold change /veh KRTAP5-7 /// NADSYN1 (11734609_at) / RFU RASL12 (11751679_a_at) / Fold change /veh RASL12 (11751679_a_at) / RFU CDKN2B (11736163_a_at) / Fold change /veh CDKN2B (11736163_a_at) / RFU PRF1 (11729649_at) / Fold change /veh PRF1 (11729649_at) / RFU, ZNF638 /// ZNF638-IT1 / Fold change vs veh, ZNF638 /// ZNF638-IT1 / RFU, PANK3 / Fold change vs veh, PANK3 / RFU, SH3YL1 / Fold change vs veh, SH3YL1 / RFU, ZEB2 / Fold change vs veh, ZEB2 / RFU, NRIP1 / Fold change vs veh, NRIP1 / RFU, PTTG1IP / Fold change vs veh, PTTG1IP / RFU, CAPN2 / Fold change vs veh, CAPN2 / RFU, MED14 / Fold change vs veh, MED14 / RFU, SNORA58 / Fold change vs veh, SNORA58 / RFU, C1orf63 / Fold change vs veh, C1orf63 / RFU, LRRFIP1 / Fold change vs veh, LRRFIP1 / RFU, NDUFAF7 / Fold change vs veh, NDUFAF7 / RFU, SLC12A2 / Fold change vs veh, SLC12A2 / RFU, IBTK / Fold change vs veh, IBTK / RFU, ESF1 / Fold change vs veh, ESF1 / Fold change vs veh, TMEM50B / RFU, TAOK1 / Fold change vs veh, TAOK1 / RFU, ACBD3 / Fold change vs veh, ACBD3 / RFU, TMA16 / Fold change vs veh, TMA16 / RFU, RWDD3 / Fold change vs veh, RWDD3 / RFU, BCAT1 / Fold change vs veh, BCAT1 / RFU, EDEM3 / Fold change vs veh, EDEM3 / RFU, TMEM33 / Fold change vs veh, TMEM33 / RFU, WDR75 / Fold change vs veh, WDR75 / RFU, AHCTF1 / Fold change vs veh, AHCTF1 / RFU, TFRC / Fold change vs veh, TFRC / RFU, ZDHHC17 / Fold change vs veh, ZDHHC17 / RFU, NOM1 / Fold change vs veh, NOM1 / RFU, ARL8B / Fold change vs veh, ARL8B / RFU, ZBTB11 / Fold change vs veh, ZBTB11 / RFU, TAMM41 / Fold change vs veh, TAMM41 / RFU, KIAA1704 /// LOC100996395 / Fold change vs veh, KIAA1704 /// LOC100996395 / RFU, ING1 / Fold change vs veh, ING1 / RFU, TRMT61B / Fold change vs veh, TRMT61B / RFU, FUBP3 / Fold change vs veh, FUBP3 / RFU, TP53 / Fold change vs veh, TP53 / RFU, TNKS2 / Fold change vs veh, TNKS2 / RFU, ZFP14 / Fold change vs veh, ZFP14 / RFU, ACTR2 / Fold change vs veh, ACTR2 / RFU, PPP3R1 / Fold change vs veh, PPP3R1 / RFU, PIK3R1 / Fold change vs veh, PIK3R1 / RFU, HNRNPA1 / Fold change vs veh, HNRNPA1 / RFU, RNF170 / Fold change vs veh, RNF170 / RFU, ZNF28 / Fold change vs veh, ZNF28 / RFU, RNGTT / Fold change vs veh, RNGTT / RFU, OGT / Fold change vs veh, OGT / RFU, BRD1 / Fold change vs veh, BRD1 / RFU, MARS / Fold change vs veh, MARS / RFU, ZNF655 / Fold change vs veh, ZNF655 / RFU, FAHD1 / Fold change vs veh, FAHD1 / RFU, BDP1 / Fold change vs veh, BDP1 / RFU, LRRCC1 / Fold change vs veh, LRRCC1 / RFU, ARID1A / Fold change vs veh, ARID1A / RFU, ZNF146 / Fold change vs veh, ZNF146 / RFU, ZNF330 / Fold change vs veh, ZNF330 / RFU, GPN3 / Fold change vs veh, GPN3 / RFU, C9orf123 / Fold change vs veh, C9orf123 / RFU, N4BP2L2 / Fold change vs veh, N4BP2L2 / RFU, ARFIP1 / Fold change vs veh, ARFIP1 / RFU, FAM179B / Fold change vs veh, FAM179B / RFU, BCL10 / Fold change vs veh, BCL10 / RFU, UHRF1BP1L / Fold change vs veh, UHRF1BP1L / RFU, BET1 / Fold change vs veh, BET1 / RFU, CNOT2 / Fold change vs veh, CNOT2 / RFU, ZNF268 / Fold change vs veh, ZNF268 / Fold change vs veh, ZNF507 / RFU, DGCR2 / Fold change vs veh, DGCR2 / RFU, WDSUB1 / Fold change vs veh, WDSUB1 / Fold change vs veh, HSP90B1 /// MIR3652 / RFU, ADSS / Fold change vs veh, ADSS / RFU, GK / Fold change vs veh, GK / RFU, ZNF148 / Fold change vs veh, ZNF148 / RFU, TAF9 / Fold change vs veh, TAF9 / RFU, SLC1A5 / Fold change vs veh, SLC1A5 / RFU, SLMO2 / Fold change vs veh, SLMO2 / RFU, ABCC4 / Fold change vs veh, ABCC4 / RFU, LOC101060439 /// RAP1B / Fold change vs veh, LOC101060439 /// RAP1B / RFU, RFX7 / Fold change vs veh, RFX7 / RFU, GTPBP10 / Fold change vs veh, GTPBP10 / RFU, CNEP1R1 / Fold change vs veh, CNEP1R1 / RFU, BIVM-ERCC5 /// ERCC5 / Fold change vs veh, BIVM-ERCC5 /// ERCC5 / RFU, ILF3 / Fold change vs veh, ILF3 / RFU 11762660_at / Fold change /veh 11762660_at / RFU VCAN (11757783_s_at) / Fold change /veh VCAN (11757783_s_at) / RFU DDX43 (11728927_at) / Fold change /veh DDX43 (11728927_at) / RFU KRT8 (11758188_x_at) / Fold change /veh KRT8 (11758188_x_at) / RFU NKD1 (11759106_at) / Fold change /veh NKD1 (11759106_at) / RFU SRD5A1 (11742802_a_at) / Fold change /veh SRD5A1 (11742802_a_at) / RFU TPSAB1 /// TPSB2 (11721975_s_at) / Fold change /veh TPSAB1 /// TPSB2 (11721975_s_at) / RFU GSTM3 (11746129_a_at) / Fold change /veh GSTM3 (11746129_a_at) / RFU IL23R (11737362_x_at) / Fold change /veh IL23R (11737362_x_at) / RFU TMEM51 (11727254_a_at) / Fold change /veh TMEM51 (11727254_a_at) / RFU PIWIL2 (11732686_x_at) / Fold change /veh PIWIL2 (11732686_x_at) / RFU ORM1 (11744905_x_at) / Fold change /veh ORM1 (11744905_x_at) / RFU CCDC152 (11743942_at) / Fold change /veh CCDC152 (11743942_at) / RFU ECM1 (11717891_a_at) / Fold change /veh ECM1 (11717891_a_at) / RFU IL23R (11748794_a_at) / Fold change /veh IL23R (11748794_a_at) / RFU TNFAIP8L3 (11732012_x_at) / Fold change /veh TNFAIP8L3 (11732012_x_at) / RFU MBOAT4 (11741988_at) / Fold change /veh MBOAT4 (11741988_at) / RFU 11764193_at / Fold change /veh 11764193_at / RFU TMEM53 (11763286_at) / Fold change /veh TMEM53 (11763286_at) / RFU MAGEB2 (11727129_at) / Fold change /veh MAGEB2 (11727129_at) / RFU TMEM200A (11744735_a_at) / Fold change /veh TMEM200A (11744735_a_at) / RFU CCDC152 (11751479_a_at) / Fold change /veh CCDC152 (11751479_a_at) / RFU FAM211A (11726209_a_at) / Fold change /veh FAM211A (11726209_a_at) / RFU RGS16 (11746705_a_at) / Fold change /veh RGS16 (11746705_a_at) / RFU VCAN (11755009_s_at) / Fold change /veh VCAN (11755009_s_at) / RFU RHOB (11743442_s_at) / Fold change /veh RHOB (11743442_s_at) / RFU RGS16 (11720943_a_at) / Fold change /veh RGS16 (11720943_a_at) / RFU RGS16 (11720944_at) / Fold change /veh RGS16 (11720944_at) / RFU, VPS4B / Fold change vs veh, VPS4B / RFU, CREB1 / Fold change vs veh, CREB1 / RFU, DNAJC13 / Fold change vs veh, DNAJC13 / RFU, GNAQ / Fold change vs veh, GNAQ / RFU, CDK5R1 / Fold change vs veh, CDK5R1 / RFU, ZRANB3 / Fold change vs veh, ZRANB3 / RFU, CUL4A / Fold change vs veh, CUL4A / RFU, CCNY / Fold change vs veh, CCNY / RFU, UFL1 / Fold change vs veh, UFL1 / RFU, COG3 / Fold change vs veh, COG3 / RFU, DIAPH2 / Fold change vs veh, DIAPH2 / RFU, SKA2 / Fold change vs veh, SKA2 / RFU, AFF3 / Fold change vs veh, AFF3 / RFU, LMF1 / Fold change vs veh, LMF1 / RFU, IPO11 / Fold change vs veh, IPO11 / RFU, DFFB / Fold change vs veh, DFFB / RFU, FOXP1 / Fold change vs veh, FOXP1 / RFU, CARD8 / Fold change vs veh, CARD8 / RFU, STRN3 / Fold change vs veh, STRN3 / RFU, ADK / Fold change vs veh, ADK / RFU, RASSF2 / Fold change vs veh, RASSF2 / RFU, WIPF1 / Fold change vs veh, WIPF1 / RFU, LARP1B / Fold change vs veh, LARP1B / RFU, RASA1 / Fold change vs veh, RASA1 / RFU, RB1 / Fold change vs veh, RB1 / RFU, PPFIA1 / Fold change vs veh, PPFIA1 / RFU, MAT2A / Fold change vs veh, MAT2A / RFU, CCT5 / Fold change vs veh, CCT5 / RFU, WDR92 / Fold change vs veh, WDR92 / RFU, CUX1 / Fold change vs veh, CUX1 / RFU, TTC7A / Fold change vs veh, TTC7A / RFU, TMEM135 / Fold change vs veh, TMEM135 / RFU, DEPTOR / Fold change vs veh, DEPTOR / RFU, CPM / Fold change vs veh, CPM / RFU, DNAJB6 / Fold change vs veh, DNAJB6 / RFU, CACNA2D3 / Fold change vs veh, CACNA2D3 / RFU, DTX4 / Fold change vs veh, DTX4 / RFU, TFCP2 / Fold change vs veh, TFCP2 / RFU, GMCL1 /// GMCL1P1 / Fold change vs veh, GMCL1 /// GMCL1P1 / RFU, AEBP2 / Fold change vs veh, AEBP2 / RFU, SNHG1 /// SNORD22 /// SNORD25 /// SNORD26 /// SNORD27 /// SNORD28 /// SNORD29 /// SNORD31 / Fold change vs veh, SNHG1 /// SNORD22 /// SNORD25 /// SNORD26 /// SNORD27 /// SNORD28 /// SNORD29 /// SNORD31 / Fold change (Aza/veh), C12orf56 (ProbeSet 11735607_a_at) / Fold change (ACY-1035/veh), C12orf56 (ProbeSet 11735607_a_at) / Fold change (Aza/veh), FGFR1OP (ProbeSet 11751329_s_at) / Fold change (ACY-1035/veh), FGFR1OP (ProbeSet 11751329_s_at) / Fold change (Aza/veh), VPS36 (ProbeSet 11739960_a_at) / Fold change (ACY-1035/veh), VPS36 (ProbeSet 11739960_a_at) / RFU SYPL1 (11715823_x_at) / Fold change /veh SYPL1 (11715823_x_at) / RFU IGFBP7 (11715501_s_at) / Fold change /veh IGFBP7 (11715501_s_at) / RFU REEP3 (11722064_at) / Fold change /veh REEP3 (11722064_at) / RFU IGLL1 (11728026_x_at) / Fold change /veh IGLL1 (11728026_x_at): dose or concentration left out as unconfirmed
Details: ProbeSet 11720270_a_at; LIST B

SMILES: Nc1ccc(-c2cccs2)cc1NC(=O)c1ccc2c(c1)cc(C1CC1)n2CCN1CCOCC1 [ACY-1035]
- RFU, IBTK: 373.26 RFU
